According to PubChem BioAssay (NCI):
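1) Cells in 96-well plates. 2) Compound, 48 h, 5 concentrations. 3) Linear interpolation between surrounding doses. 4) Unreached endpoint = highest concentration. The concentration for 50% growth inhibition is given as GI50. TGI marks complete inhibition of growth.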 Non-standard residues stand in square brackets, D forms with d. Residues, ends and D or L forms follow the SMILES beside them. *: point of attachment. ONb = O=[N+]([O-])c1ccc(CO*)cc1; AllylGly = C=CC[CH](N)C(=O)O; Boc = CC(C)(C)OC(=O)*

Columns and labels:
Assay in all cases: NCI-60 cell line screen, 48 h
[1] = tested on: HS 578T breast
[2] = tested on: A498 renal
[3] = tested on: SK-OV-3 ovarian
[4] = tested on: ACHN renal
[5] = tested on: OVCAR-3 ovarian
[6] = tested on: NCI-H23 lung
[7] = tested on: 786-0 renal
[8] = tested on: NCI-H460 lung
[9] = tested on: SK-MEL-28 melanoma
[10] = tested on: RPMI-8226 leukemia
[11] = tested on: UACC-257 melanoma
[12] = tested on: EKVX NSCLC
[13] = tested on: SF-295 CNS
[14] = tested on: OVCAR-8 ovarian
[15] = tested on: LOX IMVI melanoma
[16] = tested on: MDA-MB-231 breast
[17] = tested on: OVCAR-4 ovarian
[18] = tested on: M14 melanoma
[19] = tested on: CCRF-CEM leukemia
[20] = tested on: MALME-3M melanoma
[21] = tested on: CAKI-1 renal
[22] = tested on: HL-60(TB) leukemia
[23] = tested on: NCI-H522 lung
[24] = tested on: SR leukemia
[25] = tested on: UACC-62 melanoma
[26] = tested on: TK-10 renal
[27] = tested on: SF-268 CNS
[28] = tested on: OVCAR-5 ovarian
[29] = tested on: K-562 leukemia
[30] = tested on: IGROV1 ovarian
[31] = tested on: T-47D breast
[32] = tested on: A549 NSCLC
[33] = tested on: U251 CNS
[34] = tested on: SF-539 CNS
[35] = tested on: COLO 205 colon
[36] = tested on: UO-31 renal
[37] = tested on: SW-620 colon
[38] = tested on: HOP-92 NSCLC
[39] = tested on: SK-MEL-2 melanoma
[40] = tested on: SN12C renal
[41] = tested on: HCC-2998 colon
[42] = tested on: SNB-75 CNS
[43] = tested on: KM12 colon
[44] = tested on: HT29 colon
[45] = tested on: HCT-116 colon
[46] = tested on: MCF7 breast
[47] = tested on: MOLT-4 leukemia
[48] = tested on: NCI/ADR-RES ovarian
[49] = tested on: SNB-19 CNS
[50] = tested on: DU-145 prostate
[51] = tested on: HCT-15 colon
[52] = tested on: MDA-MB-435
[53] = tested on: SK-MEL-5 melanoma
[54] = tested on: NCI-H226 lung
[55] = tested on: RXF 393 renal
[56] = tested on: HOP-62 NSCLC
[57] = tested on: BT-549 breast
[58] = tested on: PC-3 prostate

Compound: C=CCC(NC(=O)OC(C)(C)C)C(=O)NC(CCC(=O)OCc1ccc([N+](=O)[O-])cc1)C(N)=O (centres undefined) (Boc-[AllylGly]-Glu(ONb)-NH2; configuration not given here)
- GI50 [1]: 19.8 µg/mL
- TGI [1]: 45.5 µg/mL
- GI50 [2]: 13.4 µg/mL
- TGI [2]: 27.9 µg/mL
- GI50 [3]: 24.6 µg/mL
- TGI [3]: 66.3 µg/mL
- GI50 [4]: 18.1 µg/mL
- TGI [4]: 33.3 µg/mL
- GI50 [5]: 26.3 µg/mL
- TGI [5]: 90.1 µg/mL
- GI50 [6]: 29.6 µg/mL
- TGI [6]: 91.8 µg/mL
- GI50 [7]: 21.9 µg/mL
- TGI [7]: 52 µg/mL
- GI50 [8]: 24.7 µg/mL
- TGI [8]: 49.8 µg/mL
- GI50 [9]: 16.3 µg/mL
- TGI [9]: 30.9 µg/mL
- GI50 [10]: 26.7 µg/mL
- TGI [10]: 77.6 µg/mL
- GI50 [11]: 16.2 µg/mL
- TGI [11]: 31.7 µg/mL
- GI50 [12]: 22.8 µg/mL
- TGI [12]: 61.7 µg/mL
- GI50 [13]: 16.9 µg/mL
- TGI [13]: 37.9 µg/mL
- GI50 [14]: 35.8 µg/mL
- GI50 [15]: 49 µg/mL
- GI50 [16]: 93 µg/mL
- GI50 [17]: 87.2 µg/mL
- GI50 [18]: 33 µg/mL
- GI50 [19]: 31.8 µg/mL
- GI50 [20]: 18.4 µg/mL
- TGI [20]: 33.1 µg/mL
- GI50 [21]: 19.1 µg/mL
- TGI [21]: 54.5 µg/mL
- GI50 [22]: 53.1 µg/mL
- GI50 [23]: 28.1 µg/mL
- GI50 [24]: 47.8 µg/mL
- GI50 [25]: 19.5 µg/mL
- TGI [25]: 38.9 µg/mL
- GI50 [26]: 34.3 µg/mL
- GI50 [27]: 21.8 µg/mL
- TGI [27]: 49.7 µg/mL
- GI50 [28]: 64.1 µg/mL
- GI50 [29]: 18.2 µg/mL
- TGI [29]: 65.5 µg/mL
- GI50 [30]: 34.1 µg/mL
- GI50 [31]: 77 µg/mL
- GI50 [32]: 52.3 µg/mL
- GI50 [33]: 65.2 µg/mL
- GI50 [34]: 20.6 µg/mL
- TGI [34]: 37.6 µg/mL
- GI50 [35]: 22.9 µg/mL
- TGI [35]: 53.1 µg/mL
- GI50 [36]: 19.7 µg/mL
- TGI [36]: 38.5 µg/mL
- GI50 [37]: 95.9 µg/mL
- GI50 [38]: 13.3 µg/mL
- TGI [38]: 26.5 µg/mL
- GI50 [39]: 26.5 µg/mL
- TGI [39]: 68.8 µg/mL
- GI50 [40]: 57.5 µg/mL
- GI50 [41]: 19.2 µg/mL
- TGI [41]: 43.7 µg/mL
- GI50 [42]: 21.4 µg/mL
- TGI [42]: 51.5 µg/mL

Compound: C=CCC(C)C12CCNC(Cc3ccc(O)cc31)C2C (centres undefined)
- TGI [1]: > 100 µM
- TGI [2]: > 100 µM
- TGI [43]: > 100 µM
- TGI [3]: > 100 µM
- TGI [44]: > 100 µM
- TGI [4]: > 100 µM
- TGI [45]: > 100 µM
- TGI [6]: > 100 µM
- TGI [7]: > 100 µM
- TGI [8]: > 100 µM
- TGI [9]: > 100 µM
- TGI [46]: > 100 µM
- TGI [47]: > 100 µM
- TGI [10]: > 100 µM
- TGI [11]: > 100 µM
- TGI [12]: > 100 µM
- TGI [13]: > 100 µM
- TGI [14]: > 100 µM
- TGI [15]: > 100 µM
- TGI [16]: > 100 µM
- TGI [17]: > 100 µM
- TGI [18]: > 100 µM
- TGI [19]: > 100 µM
- TGI [48]: > 100 µM
- TGI [20]: > 100 µM
- TGI [49]: > 100 µM
- TGI [24]: > 100 µM
- TGI [50]: > 100 µM
- TGI [25]: > 100 µM
- TGI [26]: > 100 µM
- TGI [51]: > 100 µM
- TGI [52]: > 100 µM
- TGI [27]: > 100 µM
- TGI [28]: > 100 µM
- TGI [29]: > 100 µM
- TGI [30]: > 100 µM
- TGI [31]: > 100 µM
- TGI [32]: > 100 µM
- TGI [53]: > 100 µM
- TGI [54]: > 100 µM
- TGI [33]: > 100 µM
- TGI [34]: > 100 µM
- TGI [35]: > 100 µM
- TGI [55]: > 100 µM
- TGI [36]: > 100 µM
- TGI [37]: > 100 µM
- TGI [38]: > 100 µM
- TGI [40]: > 100 µM
- TGI [41]: > 100 µM
- TGI [42]: > 100 µM
- TGI [56]: > 100 µM

Compound: CCOc1cc2ncc(C#N)c(Nc3ccc(OCc4cccc(F)c4)c(Cl)c3)c2cc1NC(=O)CC1CCSS1 (centres undefined)
- GI50 [1]: 4.12 µM
- TGI [1]: > 25 µM
- GI50 [2]: > 25 µM
- TGI [2]: > 25 µM
- GI50 [43]: 0.49 µM
- TGI [43]: 1.12 µM
- GI50 [3]: 0.476 µM
- TGI [3]: 0.905 µM
- GI50 [44]: 0.907 µM
- TGI [44]: > 25 µM
- GI50 [4]: 3.1 µM
- TGI [4]: > 25 µM
- GI50 [45]: 0.431 µM
- TGI [45]: 1.07 µM
- GI50 [5]: 1.09 µM
- TGI [5]: 9.3 µM
- GI50 [6]: 2.08 µM
- TGI [6]: > 25 µM
- GI50 [7]: > 13.8 µM
- TGI [7]: > 25 µM
- GI50 [8]: 0.465 µM
- TGI [8]: 0.948 µM
- GI50 [9]: 1.2 µM
- TGI [9]: > 19.3 µM
- GI50 [10]: > 25 µM
- TGI [10]: > 25 µM
- GI50 [11]: 24.5 µM
- TGI [11]: > 25 µM
- GI50 [12]: 0.74 µM
- TGI [12]: > 14.3 µM
- GI50 [13]: > 25 µM
- TGI [13]: > 25 µM
- GI50 [14]: 6.36 µM
- TGI [14]: > 25 µM
- GI50 [15]: 0.447 µM
- TGI [15]: 1.01 µM
- GI50 [16]: 1.02 µM
- TGI [16]: > 25 µM
- GI50 [17]: 0.539 µM
- TGI [17]: 1.36 µM
- GI50 [18]: 0.45 µM
- TGI [18]: 0.915 µM
- GI50 [19]: 0.146 µM
- TGI [19]: > 25 µM
- GI50 [48]: > 25 µM
- TGI [48]: > 25 µM
- GI50 [20]: > 22.3 µM
- TGI [20]: > 25 µM
- GI50 [21]: 1.77 µM
- TGI [21]: > 25 µM
- GI50 [49]: > 25 µM
- TGI [49]: > 25 µM
- GI50 [22]: 3.48 µM
- TGI [22]: > 25 µM
- GI50 [57]: 1.87 µM
- TGI [57]: > 25 µM
- GI50 [23]: > 6.9 µM
- TGI [23]: > 25 µM
- GI50 [24]: 0.68 µM
- TGI [24]: > 25 µM
- GI50 [50]: 0.561 µM
- TGI [50]: 1.36 µM
- GI50 [25]: > 25 µM
- TGI [25]: > 25 µM
- GI50 [26]: 0.916 µM
- TGI [26]: 6 µM
- GI50 [51]: 2.76 µM
- TGI [51]: > 25 µM
- GI50 [52]: 0.596 µM
- TGI [52]: 1.52 µM
- GI50 [27]: 0.727 µM
- TGI [27]: 3.02 µM
- GI50 [28]: > 25 µM
- TGI [28]: > 25 µM
- GI50 [29]: 0.902 µM
- TGI [29]: > 25 µM
- GI50 [30]: 0.578 µM
- TGI [30]: > 6.27 µM
- GI50 [31]: 0.978 µM
- TGI [31]: > 25 µM
- GI50 [32]: 0.542 µM
- TGI [32]: 1.16 µM
- GI50 [53]: 2.39 µM
- TGI [53]: > 25 µM
- GI50 [54]: 11 µM
- TGI [54]: > 25 µM
- GI50 [33]: > 6.88 µM
- TGI [33]: > 25 µM
- GI50 [34]: 2.28 µM
- TGI [34]: > 25 µM
- GI50 [35]: 2.39 µM
- TGI [35]: > 25 µM
- GI50 [58]: 0.801 µM
- TGI [58]: 5.91 µM
- GI50 [55]: 2.35 µM
- TGI [55]: 15.8 µM
- GI50 [36]: 1.04 µM
- TGI [36]: > 25 µM
- GI50 [37]: > 25 µM
- TGI [37]: > 25 µM
- GI50 [38]: > 11.5 µM
- TGI [38]: > 25 µM
- GI50 [39]: 0.99 µM
- TGI [39]: > 7.13 µM
- GI50 [40]: > 6.3 µM
- TGI [40]: > 25 µM
- GI50 [41]: 0.484 µM
- TGI [41]: 0.974 µM
- GI50 [42]: > 25 µM
- TGI [42]: > 25 µM
- TGI [56]: > 15.1 µM
